Non-standard residues stand in square brackets, D forms with d. Residues, ends and D or L forms follow the SMILES beside them. *: point of attachment. DOTA = O=C(O)CN1CCN(CC(=O)O)CCN(CC(=O)*)CCN(CC(=O)O)CC1; Bpa = N[C@@H](Cc1ccc(C(=O)c2ccccc2)cc1)C(=O)O; Ala(4-thiazolyl) = N[C@@H](Cc1cscn1)C(=O)O; Phe(4-Cl) = N[C@@H](Cc1ccc(Cl)cc1)C(=O)O; d2Nal = N[C@H](Cc1ccc2ccccc2c1)C(=O)O; His(π-Me) = Cn1cncc1C[C@H](N)C(=O)O; azaGly = NNC(=O)O; Sar = CNCC(=O)O
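Note: Cell-associated radioactivity on confluent EFO-27 monolayers in 96-well plates, measured by microplate scintillation counting.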

One assay deals with LHRH binding sites on human ovarian cancer cells (EFO-27).
Conditions: not given
Molecule `CNCC(=O)N[C@@H](CCCNC(=N)N)C(=O)N[C@@H](Cc1c[nH]c2ccccc12)C(=O)N[C@@H](CO)C(=O)N[C@@H](Cc1c[nH]cn1)C(=O)N[C@H](CCCNC(=N)N)C(=O)N[C@@H](Cc1c[nH]c2ccccc12)C(=O)N[C@@H](Cc1ccc(C(=O)c2ccccc2)cc1)C(=O)N1CCC[C@H]1C(=O)NCCCCCNC(=O)CN1CCN(CC(=O)O)CCN(CC(=O)O)CCN(CC(=O)O)CC1` [BRU-3085] returned an EC50 of 230 to 500 nM. For `CC(=O)N[C@@H](Cc1ccc(CNC(=O)CN2CCN(CC(=O)O)CCN(CC(=O)O)CCN(CC(=O)O)CC2)cc1)C(=O)N[C@@H](Cc1c[nH]cn1)C(=O)N[C@@H](Cc1c[nH]c2ccccc12)C(=O)N[C@@H](CO)C(=O)N[C@@H](Cc1c[nH]cn1)C(=O)N[C@H](CCCNC(=N)N)C(=O)N[C@@H](Cc1c[nH]c2ccccc12)C(=O)N[C@@H](Cc1ccc(C(=O)c2ccccc2)cc1)C(=O)N1CCC[C@H]1C(=O)NNC(N)=O` [BRU-2881], a half-maximal response (EC50) required 1380 nM. The molecule `CN(CC(=O)N[C@@H](Cc1cncn1C)C(=O)N[C@@H](Cc1c[nH]c2ccccc12)C(=O)N[C@@H](CO)C(=O)N[C@@H](Cc1cscn1)C(=O)N[C@H](CCCNC(=N)N)C(=O)N[C@@H](Cc1c[nH]c2ccccc12)C(=O)N[C@@H](Cc1ccc(C(=O)c2ccccc2)cc1)C(=O)N1CCC[C@H]1C(=O)NNC(N)=O)C(=O)CN1CCN(CC(=O)O)CCN(CC(=O)O)CCN(CC(=O)O)CC1` [BRU-2739] ({DOTA}-[Sar][His(π-Me)]WS[Ala(4-thiazolyl)][dR]W[Bpa]P[azaGly]-NH2; C-terminus assumed) showed a concentration giving a half-maximal response (EC50) of 5280 nM. The same measure, in the same setting: with `CNCC(=O)N[C@@H](CCCNC(=N)N)C(=O)N[C@@H](Cc1c[nH]c2ccccc12)C(=O)N[C@@H](CO)C(=O)N[C@@H](Cc1c[nH]cn1)C(=O)N[C@H](CCCNC(=N)N)C(=O)N[C@@H](Cc1c[nH]c2ccccc12)C(=O)N[C@@H](Cc1ccc(C(=O)c2ccccc2)cc1)C(=O)N1CCC[C@H]1C(=O)NCCCCCNC(=O)CN1CCN(CC(=O)O)CCN(CC(=O)O)CCN(CC(=O)O)CC1` [compound 3085] the figure was 400 ± 250 nM.

`CN(CC(=O)N[C@@H](Cc1ccc(Cl)cc1)C(=O)N[C@@H](Cc1c[nH]c2ccccc12)C(=O)N[C@@H](CO)C(=O)N[C@@H](Cc1c[nH]cn1)C(=O)N[C@H](CCCNC(=N)N)C(=O)N[C@@H](Cc1c[nH]c2ccccc12)C(=O)N[C@@H](Cc1ccc(C(=O)c2ccccc2)cc1)C(=O)N1CCC[C@H]1C(=O)NNC(N)=O)C(=O)CN1CCN(CC(=O)O)CCN(CC(=O)O)CCN(CC(=O)O)CC1` [BRU-2719] ({DOTA}-[Sar][Phe(4-Cl)]WSH[dR]W[Bpa]P[azaGly]-NH2) displayed an EC50 of 630 nM. Molecule `CNCC(=O)N[C@@H](CCCNC(=N)N)C(=O)N[C@@H](Cc1c[nH]c2ccccc12)C(=O)N[C@@H](CO)C(=O)N[C@@H](Cc1c[nH]cn1)C(=O)N[C@H](CCCNC(=N)N)C(=O)N[C@@H](Cc1c[nH]c2ccccc12)C(=O)N[C@@H](Cc1ccc(C(=O)c2ccccc2)cc1)C(=O)N1CCC[C@H]1C(=O)NCCOCCNC(=O)CN1CCN(CC(=O)O)CCN(CC(=O)O)CCN(CC(=O)O)CC1` [BRU-3039] showed a 50% effective concentration (EC50) of 230 to 500 nM. `CN(C(=O)CN1CCN(CC(=O)O)CCN(CC(=O)O)CCN(CC(=O)O)CC1)[C@H](Cc1ccc2ccccc2c1)C(=O)N[C@@H](CCCNC(=N)N)C(=O)N[C@@H](Cc1c[nH]c2ccccc12)C(=O)N[C@@H](CO)C(=O)N[C@@H](Cc1c[nH]cn1)C(=O)N[C@H](CCCNC(=N)N)C(=O)N[C@@H](Cc1c[nH]c2ccccc12)C(=O)N[C@@H](Cc1ccc(C(=O)c2ccccc2)cc1)C(=O)N1CCC[C@H]1C(=O)NNC(N)=O` [BRU-2965] gave an EC50 of 580 nM.

For `N=C(N)NCCC[C@H](NC(=O)[C@@H](Cc1ccc2ccccc2c1)NC(=O)CN1CCN(CC(=O)O)CCN(CC(=O)O)CCN(CC(=O)O)CC1)C(=O)N[C@@H](Cc1c[nH]c2ccccc12)C(=O)N[C@@H](CO)C(=O)N[C@@H](Cc1c[nH]cn1)C(=O)N[C@H](CCCNC(=N)N)C(=O)N[C@@H](Cc1c[nH]c2ccccc12)C(=O)N[C@@H](Cc1ccc(C(=O)c2ccccc2)cc1)C(=O)O` [BRU-3064, DO3A10CM-Dna12-Arg-Trp-Ser-His-Darg-Trp-Bpa4-OH] ({DOTA}-[d2Nal]RWSH[dR]W[Bpa]-OH), it took 720 nM to reach a half-maximal effect (EC50). On the same count and under the same terms, the value for `CN(CC(=O)N[C@@H](Cc1c[nH]cn1)C(=O)N[C@@H](Cc1c[nH]c2ccccc12)C(=O)N[C@@H](CO)C(=O)N[C@@H](Cc1c[nH]cn1)C(=O)N[C@H](CCCNC(=N)N)C(=O)N[C@@H](Cc1c[nH]c2ccccc12)C(=O)N1CCC[C@H]1C(=O)NNC(N)=O)C(=O)CN1CCN(CC(=O)O)CCN(CC(=O)O)CCN(CC(=O)O)CC1` [BRU-2767] (HELM PEPTIDE1{[O=C(O)CN1CCN(CC(=O)O)CCN(CC(=O)[*:2])CCN(CC(=O)O)CC1].[Sar].H.W.S.H.[dR].W.P.[O=C(NN[*:1])[*:2]].[am]}$$$$V2.0) was 10000 nM; that for `CNCC(=O)N[C@@H](CCCNC(=N)N)C(=O)N[C@@H](Cc1c[nH]c2ccccc12)C(=O)N[C@@H](CO)C(=O)N[C@@H](Cc1c[nH]cn1)C(=O)N[C@H](CCCNC(=N)N)C(=O)N[C@@H](Cc1c[nH]c2ccccc12)C(=O)N[C@@H](Cc1ccc(C(=O)c2ccccc2)cc1)C(=O)N1CCC[C@H]1C(=O)NCCNC(=O)CN1CCN(CC(=O)O)CCN(CC(=O)O)CCN(CC(=O)O)CC1` [compound 3103] was 170 ± 70 nM; that for `CNCC(=O)N[C@@H](Cc1c[nH]cn1)C(=O)N[C@@H](Cc1c[nH]c2ccccc12)C(=O)N[C@@H](CO)C(=O)N[C@@H](Cc1c[nH]cn1)C(=O)N[C@H](CCCNC(=N)N)C(=O)N[C@@H](Cc1c[nH]c2ccccc12)C(=O)N[C@@H](Cc1ccc(C(=O)c2ccccc2)cc1)C(=O)N1CCC[C@H]1C(=O)NCCNC(=O)CN1CCN(CC(=O)O)CCN(CC(=O)O)CCN(CC(=O)O)CC1` [compound 3079] was 590 ± 260 nM.

Still in this assay, the particulars now being: EFO-27 cells, competition with [125I-Tyr8]BRU-2477, 90 min.
Take `N=C(N)NCCC[C@H](NC(=O)[C@H](Cc1ccc(OP(=O)(O)O)cc1)NC(=O)CN1CCN(CC(=O)O)CCN(CC(=O)O)CCN(CC(=O)O)CC1)C(=O)N[C@@H](Cc1c[nH]c2ccccc12)C(=O)N[C@@H](CO)C(=O)N[C@@H](Cc1c[nH]cn1)C(=O)N[C@H](CCCNC(=N)N)C(=O)N[C@@H](Cc1c[nH]c2ccccc12)C(=O)N[C@@H](Cc1ccc(C(=O)c2ccccc2)cc1)C(=O)N1CCC[C@H]1C(=O)NNC(N)=O` [BRU-3093]: the EC50 came out at 17000 nM. The molecule `N=C(N)NCCC[C@H](NC(=O)[C@@H](Cc1ccc2ccccc2c1)NC(=O)CN1CCN(CC(=O)O)CCN(CC(=O)O)CCN(CC(=O)O)CC1)C(=O)N[C@@H](Cc1c[nH]c2ccccc12)C(=O)N[C@@H](CO)C(=O)N[C@@H](Cc1c[nH]cn1)C(=O)N[C@H](CCCNC(=N)N)C(=O)N[C@@H](Cc1c[nH]c2ccccc12)C(=O)N[C@@H](Cc1ccc(C(=O)c2ccccc2)cc1)C(=O)N1CCCC[C@H]1C(=O)NNC(N)=O` [compound 2996] yielded a half-maximal effective concentration (EC50) of 350 nM. In the case of `N=C(N)NCCC[C@H](NC(=O)[C@@H](Cc1ccc2ccccc2c1)NC(=O)CN1CCN(CC(=O)O)CCN(CC(=O)O)CCN(CC(=O)O)CC1)C(=O)N[C@@H](Cc1c[nH]c2ccccc12)C(=O)N[C@@H](CO)C(=O)N[C@@H](Cc1c[nH]cn1)C(=O)N[C@H](CCCNC(=N)N)C(=O)N[C@@H](Cc1c[nH]c2ccccc12)C(=O)N[C@@H](Cc1ccc(C(=O)c2ccccc2)cc1)C(=O)N1C[C@@H](N)C[C@H]1C(=O)NNC(N)=O` [compound 3062], the EC50 stood at 320 nM. For the molecule `CN(CC(=O)N[C@@H](Cc1c[nH]cn1)C(=O)N[C@@H](Cc1c[nH]c2ccccc12)C(=O)N[C@@H](CO)C(=O)N[C@@H](Cc1c[nH]cn1)C(=O)N[C@H](CCCCNC(=N)N)C(=O)N[C@@H](Cc1c[nH]c2ccccc12)C(=O)N[C@@H](Cc1ccc(C(=O)c2ccccc2)cc1)C(=O)N1CCC[C@H]1C(=O)NNC(N)=O)C(=O)CN1CCN(CC(=O)O)CCN(CC(=O)O)CCN(CC(=O)O)CC1` [BRU-2893], the response was half-maximal at 2600 nM (EC50).

The same assay, now with this note: Table 5: modifications of amino acids at positions 1 and 2; in vitro binding on EFO-27 cells.
As to `N=C(N)NCCC[C@@H](NC(=O)[C@H](Cc1c[nH]cn1)NC(=O)[C@H](CO)NC(=O)[C@H](Cc1c[nH]c2ccccc12)NC(=O)[C@H](Cc1c[nH]cn1)NC(=O)[C@H](NC(=O)CNC(=O)CN1CCN(CC(=O)O)CCN(CC(=O)O)CCN(CC(=O)O)CC1)c1cccc2ccccc12)C(=O)N[C@@H](Cc1c[nH]c2ccccc12)C(=O)N[C@@H](Cc1ccc(C(=O)c2ccccc2)cc1)C(=O)N1CCC[C@H]1C(=O)NNC(N)=O` [BRU-2770], the 50% effective concentration (EC50) was 2700 nM.

Staying with this assay, now noted: Table 11: modification of amino acid at position 5; EFO-27 cells.
Take `CC(C)C[C@H](NC(=O)[C@@H](CCCNC(=N)N)NC(=O)[C@H](Cc1ccc(O)cc1)NC(=O)[C@H](CO)NC(=O)[C@H](Cc1c[nH]c2ccccc12)NC(=O)[C@H](Cc1c[nH]cn1)NC(=O)CN(C)C(=O)CN1CCN(CC(=O)O)CCN(CC(=O)O)CCN(CC(=O)O)CC1)C(=O)N[C@@H](Cc1ccc(C(=O)c2ccccc2)cc1)C(=O)N1CCC[C@H]1C(=O)NNC(N)=O` [compound 2670] ({DOTA}-[Sar]HWSY[dR]L[Bpa]P[azaGly]-NH2): a half-maximal effect (EC50) was put at 8840 nM.

Staying with this assay, now noted: Table 12: modification of amino acid at position 3; EFO-27 cells.
As for `N=C(N)NCCC[C@H](NC(=O)[C@@H](Cc1ccc2ccccc2c1)NC(=O)CN1CCN(CC(=O)O)CCN(CC(=O)O)CCN(CC(=O)O)CC1)C(=O)N[C@H](Cc1c[nH]c2ccccc12)C(=O)N[C@@H](CO)C(=O)N[C@@H](Cc1c[nH]cn1)C(=O)N[C@H](CCCNC(=N)N)C(=O)N[C@@H](Cc1c[nH]c2ccccc12)C(=O)N[C@@H](Cc1ccc(C(=O)c2ccccc2)cc1)C(=O)N1CCC[C@H]1C(=O)NNC(N)=O` [compound 3112], it took 850 nM to reach a half-maximal effect (EC50).

The same assay, now with this note: ratio of EC50 to BRU-2813 (EC50=0.33 μM).
With `N=C(N)NCCC[C@H](NC(=O)[C@@H](Cc1ccc2ccccc2c1)NC(=O)CN1CCN(CC(=O)O)CCN(CC(=O)O)CCN(CC(=O)O)CC1)C(=O)N[C@@H](Cc1c[nH]c2ccccc12)C(=O)N[C@@H](CO)C(=O)N[C@@H](Cc1c[nH]cn1)C(=O)N[C@H](CCCNC(=N)N)C(=O)N[C@@H](Cc1c[nH]c2ccccc12)C(=O)N[C@@H](Cc1ccc(C(=O)c2ccccc2)cc1)C(=O)N1C[C@H](c2ccccc2)C[C@H]1C(=O)NNC(N)=O` [BRU-2953], the “binding potency, times lower than BRU-2813” value stood at 2. For the molecule `CN(C(=O)CN1CCN(CC(=O)O)CCN(CC(=O)O)CCN(CC(=O)O)CC1)[C@H](Cc1ccc2ccccc2c1)C(=O)N[C@@H](CCCNC(=N)N)C(=O)N[C@@H](Cc1c[nH]c2ccccc12)C(=O)N[C@@H](CO)C(=O)N[C@@H](Cc1c[nH]cn1)C(=O)N[C@H](CCCNC(=N)N)C(=O)N[C@@H](Cc1c[nH]c2ccccc12)C(=O)N[C@@H](Cc1ccc(C(=O)c2ccccc2)cc1)C(=O)N1CCC[C@H]1C(=O)NNC(N)=O` [BRU-2965], the “binding potency, times lower than BRU-2813” value was roughly 2.

Values taken from patent US20120045393A1 (priority 2009, published 2012).
